These results are taken from PMC12304869 (Obesity (Silver Spring, Md.), 2025).

Data set [1] is described as follows: DIO rats: body weight during daily s.c. semaglutide. In kind it is in vivo, male Sprague Dawley rats. Conditions: n = 9.
The format of data set [2] is in vivo, male Sprague Dawley rats. The conditions noted are these: DIO rats.
Data set [3] is described as follows: Phase 2 part 2: pharmacodynamics. In kind it is in vivo, human. The conditions noted are these: part 2b.
For data set [4] the following is noted: cited from earlier work.
For data set [5] the following is noted: cited from earlier work. The source holds these as a separate data set.

On to semaglutide, for which the “body weight loss after 26 days of treatment, mean (SD)” value was −8.8% (2.9%) in data set [1] (semaglutide 3 nmol/kg daily s.c.), −14.2% (3.0%) in data set [1] (semaglutide 30 nmol/kg daily s.c.) and −17.4% (5.7%) in data set [1] (semaglutide 100 nmol/kg daily s.c.). Further, in data set [2] (vehicle + 30 nmol/kg semaglutide), the “cumulative food intake from day 1 to 26, mean (SD)” value is 389 (53) g. Further, the “mean body weight change after 26 days, mean (SD)” value in data set [2] (vehicle + 30 nmol/kg semaglutide daily s.c., n = 9) was −12.5% (3.4%). The “change in body weight from baseline (week 32) to EOT (week 48)” value in data set [3] (placebo + semaglutide 2.4 mg weekly, ANCOVA estimate, FAS) is given as −3.1%. Moreover, the “change in body weight from baseline to EOT” value in data set [3] (placebo + semaglutide 2.4 mg) was -2.2 kg. Further, the weight loss in data set [4] (semaglutide 2.4 mg alone, over 68 weeks) is recorded as 14.9%.
On to “PYY3‐36: active, Y2‐selective cleaved form of the hormone peptide YY”, for which, in data set [5], the “half‐life (t1/2)” value is listed as “roughly 10 min”. In data set [4] (intranasal, 200‐μg dose, participants with obesity, placebo −2.8 kg), the “weight loss after 12 weeks of treatment” value is -3.7 kg. Besides, the “treatment discontinuation due to nausea and vomiting” value in data set [4] (phase 1, intranasal 600 μg) is “a majority of participants receiving 600 μg discontinued treatment”.
